From article PMC5218480 (PLoS ONE, 2017)

Test system: MV-4-11 cells
Experiment: Gene expression microarray analysis (Affymetrix PrimeView) and GSEA
Type: cell-based, human
Design: RFU PODN (11730768_x_at) / Fold change /veh PODN (11730768_x_at) / RFU LINC00158 (11744669_a_at) / Fold change /veh LINC00158 (11744669_a_at) / RFU DUSP10 (11751237_a_at) / Fold change /veh DUSP10 (11751237_a_at) / RFU ID3 (11757404_x_at) / Fold change /veh ID3 (11757404_x_at) / RFU PLEKHG5 (11737974_s_at) / Fold change /veh PLEKHG5 (11737974_s_at) / RFU LRRC4B (11730491_at) / Fold change /veh LRRC4B (11730491_at) / RFU GIMAP4 (11747438_a_at) / Fold change /veh GIMAP4 (11747438_a_at) / RFU KRT8 (11758183_x_at) / Fold change /veh KRT8 (11758183_x_at) / RFU CNN1 (11734310_a_at) / Fold change /veh CNN1 (11734310_a_at) / RFU VPS37D (11726825_at) / Fold change /veh VPS37D (11726825_at) / RFU C10orf10 (11716522_x_at) / Fold change /veh C10orf10 (11716522_x_at) / RFU KIR2DL2 /// KIR2DL4 /// KIR2DL5A /// KIR2DL5B /// KIR2DS1 /// KIR2DS2 /// KIR2DS3 /// KIR2DS4 /// KIR3DL3 /// KIR3DL3 /// KIR3DS1 (11738374_at) / Fold change /veh KIR2DL2 /// KIR2DL4 /// KIR2DL5A /// KIR2DL5B /// KIR2DS1 /// KIR2DS2 /// KIR2DS3 /// KIR2DS4 /// KIR3DL3 /// KIR3DL3 /// KIR3DS1 (11738374_at) / RFU C1QL1 (11718748_at) / Fold change /veh C1QL1 (11718748_at) / RFU TMPRSS4 (11747572_a_at) / Fold change /veh TMPRSS4 (11747572_a_at) / RFU HAMP (11756126_x_at) / Fold change /veh HAMP (11756126_x_at) / RFU RNFT2 (11725882_a_at) / Fold change /veh RNFT2 (11725882_a_at) / RFU NR4A2 (11747474_a_at) / Fold change /veh NR4A2 (11747474_a_at) / RFU ABCC12 (11746883_a_at) / Fold change /veh ABCC12 (11746883_a_at) / RFU TMEM136 (11760407_x_at) / Fold change /veh TMEM136 (11760407_x_at) / RFU CLDN22 /// WWC2 (11732394_at) / Fold change /veh CLDN22 /// WWC2 (11732394_at) / RFU HLA-DPB1 (11760878_x_at) / Fold change /veh HLA-DPB1 (11760878_x_at) / RFU SPINT1 (11716480_a_at) / Fold change /veh SPINT1 (11716480_a_at) / RFU GAP43 (11754022_s_at) / Fold change /veh GAP43 (11754022_s_at) / RFU A4GNT (11735810_at) / Fold change /veh A4GNT (11735810_at) / RFU PRB3 (11715151_x_at) / Fold change /veh PRB3 (11715151_x_at) / RFU TUBB4B (11761932_at) / Fold change /veh TUBB4B (11761932_at) / RFU CAPN14 (11732068_a_at) / Fold change /veh CAPN14 (11732068_a_at) / RFU TMCC2 (11721928_a_at) / Fold change /veh TMCC2 (11721928_a_at) / RFU IRGQ (11745062_a_at) / Fold change /veh IRGQ (11745062_a_at) / RFU FAM174B (11720279_a_at) / Fold change /veh FAM174B (11720279_a_at) / RFU TMPRSS4 (11748680_a_at) / Fold change /veh TMPRSS4 (11748680_a_at) / RFU FAM212B (11763350_a_at) / Fold change /veh FAM212B (11763350_a_at) / RFU PLEKHG5 (11743358_a_at) / Fold change /veh PLEKHG5 (11743358_a_at) / RFU ZSCAN30 (11745921_a_at) / Fold change /veh ZSCAN30 (11745921_a_at) / RFU CMKLR1 (11741424_a_at) / Fold change /veh CMKLR1 (11741424_a_at) / RFU LOC101060620 /// MAPK8IP1 (11723275_at) / Fold change /veh LOC101060620 /// MAPK8IP1 (11723275_at) / RFU SPTSSB (11747773_x_at) / Fold change /veh SPTSSB (11747773_x_at) / RFU PRSS12 (11739890_at) / Fold change /veh PRSS12 (11739890_at) / RFU BIN1 (11741810_x_at) / Fold change /veh BIN1 (11741810_x_at) / RFU WNT11 (11732464_a_at) / Fold change /veh WNT11 (11732464_a_at) / RFU C10orf10 (11716521_a_at) / Fold change /veh C10orf10 (11716521_a_at) / RFU C5orf56 (11738089_at) / Fold change /veh C5orf56 (11738089_at) / RFU CYB561 (11721691_x_at) / Fold change /veh CYB561 (11721691_x_at) / RFU ANKRD19P (11752326_a_at) / Fold change /veh ANKRD19P (11752326_a_at) / RFU OR2T12 /// OR2T33 /// OR2T8 (11738714_s_at) / Fold change /veh OR2T12 /// OR2T33 /// OR2T8 (11738714_s_at) / RFU VCAN (11748164_a_at) / Fold change /veh VCAN (11748164_a_at) / RFU JSRP1 (11732532_at) / Fold change /veh JSRP1 (11732532_at) / RFU KRTAP10-11 (11738290_x_at) / Fold change /veh KRTAP10-11 (11738290_x_at) / RFU MYO3A (11730013_a_at) / Fold change /veh MYO3A (11730013_a_at) / RFU EBF3 (11725865_a_at) / Fold change /veh EBF3 (11725865_a_at) / RFU CAMK2N1 (11719241_x_at) / Fold change /veh CAMK2N1 (11719241_x_at) / RFU C5orf56 (11738088_a_at) / Fold change /veh C5orf56 (11738088_a_at) / RFU OLFML3 (11715873_a_at) / Fold change /veh OLFML3 (11715873_a_at) / RFU LOC100653217 /// NTM (11731650_a_at) / Fold change /veh LOC100653217 /// NTM (11731650_a_at) / RFU MAPK11 (11762145_a_at) / Fold change /veh MAPK11 (11762145_a_at) / RFU FIZ1 (11724087_x_at) / Fold change /veh FIZ1 (11724087_x_at) / RFU OASL (11726364_x_at) / Fold change /veh OASL (11726364_x_at) / RFU SOX15 (11748057_x_at) / Fold change /veh SOX15 (11748057_x_at) / RFU CD79A (11719716_a_at) / Fold change /veh CD79A (11719716_a_at) / RFU HIST1H1D (11736915_at) / Fold change /veh HIST1H1D (11736915_at) / RFU CASKIN2 (11723855_a_at) / Fold change /veh CASKIN2 (11723855_a_at) / RFU LOC730098 (11760151_x_at) / Fold change /veh LOC730098 (11760151_x_at) / RFU OR4N2 (11742367_at) / Fold change /veh OR4N2 (11742367_at) / RFU PRRT2 (11749266_a_at) / Fold change /veh PRRT2 (11749266_a_at) / RFU SNX32 (11753110_a_at) / Fold change /veh SNX32 (11753110_a_at) / RFU CDHR5 (11726645_a_at) / Fold change /veh CDHR5 (11726645_a_at) / RFU RCAN1 (11760418_a_at) / Fold change /veh RCAN1 (11760418_a_at) / RFU FAM167A (11723789_a_at) / Fold change /veh FAM167A (11723789_a_at) / RFU FAM26E (11764081_at) / Fold change /veh FAM26E (11764081_at) / RFU ISYNA1 (11749810_s_at) / Fold change /veh ISYNA1 (11749810_s_at) / RFU ACY1 (11761880_at) / Fold change /veh ACY1 (11761880_at) / RFU 11764098_at / Fold change /veh 11764098_at / RFU SAMD14 (11745864_x_at) / Fold change /veh SAMD14 (11745864_x_at) / RFU NPB (11741838_a_at) / Fold change /veh NPB (11741838_a_at) / RFU TMPRSS6 (11731388_a_at) / Fold change /veh TMPRSS6 (11731388_a_at) / RFU KRTAP10-2 (11738614_at) / Fold change /veh KRTAP10-2 (11738614_at) / RFU ARHGAP8 /// PRR5-ARHGAP8 (11727945_x_at) / Fold change /veh ARHGAP8 /// PRR5-ARHGAP8 (11727945_x_at) / RFU KRTAP5-7 /// NADSYN1 (11734609_at) / Fold change /veh KRTAP5-7 /// NADSYN1 (11734609_at) / RFU RASL12 (11751679_a_at) / Fold change /veh RASL12 (11751679_a_at) / RFU CDKN2B (11736163_a_at) / Fold change /veh CDKN2B (11736163_a_at) / RFU PRF1 (11729649_at) / Fold change /veh PRF1 (11729649_at) / RFU, ZNF638 /// ZNF638-IT1 / Fold change vs veh, ZNF638 /// ZNF638-IT1 / RFU, PANK3 / Fold change vs veh, PANK3 / RFU, SH3YL1 / Fold change vs veh, SH3YL1 / RFU, ZEB2 / Fold change vs veh, ZEB2 / RFU, NRIP1 / Fold change vs veh, NRIP1 / RFU, PTTG1IP / Fold change vs veh, PTTG1IP / RFU, CAPN2 / Fold change vs veh, CAPN2 / RFU, MED14 / Fold change vs veh, MED14 / RFU, SNORA58 / Fold change vs veh, SNORA58 / RFU, C1orf63 / Fold change vs veh, C1orf63 / RFU, LRRFIP1 / Fold change vs veh, LRRFIP1 / RFU, NDUFAF7 / Fold change vs veh, NDUFAF7 / RFU, SLC12A2 / Fold change vs veh, SLC12A2 / RFU, IBTK / Fold change vs veh, IBTK / RFU, ESF1 / Fold change vs veh, ESF1 / Fold change vs veh, TMEM50B / RFU, TAOK1 / Fold change vs veh, TAOK1 / RFU, ACBD3 / Fold change vs veh, ACBD3 / RFU, TMA16 / Fold change vs veh, TMA16 / RFU, RWDD3 / Fold change vs veh, RWDD3 / RFU, BCAT1 / Fold change vs veh, BCAT1 / RFU, EDEM3 / Fold change vs veh, EDEM3 / RFU, TMEM33 / Fold change vs veh, TMEM33 / RFU, WDR75 / Fold change vs veh, WDR75 / RFU, AHCTF1 / Fold change vs veh, AHCTF1 / RFU, TFRC / Fold change vs veh, TFRC / RFU, ZDHHC17 / Fold change vs veh, ZDHHC17 / RFU, NOM1 / Fold change vs veh, NOM1 / RFU, ARL8B / Fold change vs veh, ARL8B / RFU, ZBTB11 / Fold change vs veh, ZBTB11 / RFU, TAMM41 / Fold change vs veh, TAMM41 / RFU, KIAA1704 /// LOC100996395 / Fold change vs veh, KIAA1704 /// LOC100996395 / RFU, ING1 / Fold change vs veh, ING1 / RFU, TRMT61B / Fold change vs veh, TRMT61B / RFU, FUBP3 / Fold change vs veh, FUBP3 / RFU, TP53 / Fold change vs veh, TP53 / RFU, TNKS2 / Fold change vs veh, TNKS2 / RFU, ZFP14 / Fold change vs veh, ZFP14 / RFU, ACTR2 / Fold change vs veh, ACTR2 / RFU, PPP3R1 / Fold change vs veh, PPP3R1 / RFU, PIK3R1 / Fold change vs veh, PIK3R1 / RFU, HNRNPA1 / Fold change vs veh, HNRNPA1 / RFU, RNF170 / Fold change vs veh, RNF170 / RFU, ZNF28 / Fold change vs veh, ZNF28 / RFU, RNGTT / Fold change vs veh, RNGTT / RFU, OGT / Fold change vs veh, OGT / RFU, BRD1 / Fold change vs veh, BRD1 / RFU, MARS / Fold change vs veh, MARS / RFU, ZNF655 / Fold change vs veh, ZNF655 / RFU, FAHD1 / Fold change vs veh, FAHD1 / RFU, BDP1 / Fold change vs veh, BDP1 / RFU, LRRCC1 / Fold change vs veh, LRRCC1 / RFU, ARID1A / Fold change vs veh, ARID1A / RFU, ZNF146 / Fold change vs veh, ZNF146 / RFU, ZNF330 / Fold change vs veh, ZNF330 / RFU, GPN3 / Fold change vs veh, GPN3 / RFU, C9orf123 / Fold change vs veh, C9orf123 / RFU, N4BP2L2 / Fold change vs veh, N4BP2L2 / RFU, ARFIP1 / Fold change vs veh, ARFIP1 / RFU, FAM179B / Fold change vs veh, FAM179B / RFU, BCL10 / Fold change vs veh, BCL10 / RFU, UHRF1BP1L / Fold change vs veh, UHRF1BP1L / RFU, BET1 / Fold change vs veh, BET1 / RFU, CNOT2 / Fold change vs veh, CNOT2 / RFU, ZNF268 / Fold change vs veh, ZNF268 / Fold change vs veh, ZNF507 / RFU, DGCR2 / Fold change vs veh, DGCR2 / RFU, WDSUB1 / Fold change vs veh, WDSUB1 / Fold change vs veh, HSP90B1 /// MIR3652 / RFU, ADSS / Fold change vs veh, ADSS / RFU, GK / Fold change vs veh, GK / RFU, ZNF148 / Fold change vs veh, ZNF148 / RFU, TAF9 / Fold change vs veh, TAF9 / RFU, SLC1A5 / Fold change vs veh, SLC1A5 / RFU, SLMO2 / Fold change vs veh, SLMO2 / RFU, ABCC4 / Fold change vs veh, ABCC4 / RFU, LOC101060439 /// RAP1B / Fold change vs veh, LOC101060439 /// RAP1B / RFU, RFX7 / Fold change vs veh, RFX7 / RFU, GTPBP10 / Fold change vs veh, GTPBP10 / RFU, CNEP1R1 / Fold change vs veh, CNEP1R1 / RFU, BIVM-ERCC5 /// ERCC5 / Fold change vs veh, BIVM-ERCC5 /// ERCC5 / RFU, ILF3 / Fold change vs veh, ILF3 / RFU 11762660_at / Fold change /veh 11762660_at / RFU VCAN (11757783_s_at) / Fold change /veh VCAN (11757783_s_at) / RFU DDX43 (11728927_at) / Fold change /veh DDX43 (11728927_at) / RFU KRT8 (11758188_x_at) / Fold change /veh KRT8 (11758188_x_at) / RFU NKD1 (11759106_at) / Fold change /veh NKD1 (11759106_at) / RFU SRD5A1 (11742802_a_at) / Fold change /veh SRD5A1 (11742802_a_at) / RFU TPSAB1 /// TPSB2 (11721975_s_at) / Fold change /veh TPSAB1 /// TPSB2 (11721975_s_at) / RFU GSTM3 (11746129_a_at) / Fold change /veh GSTM3 (11746129_a_at) / RFU IL23R (11737362_x_at) / Fold change /veh IL23R (11737362_x_at) / RFU TMEM51 (11727254_a_at) / Fold change /veh TMEM51 (11727254_a_at) / RFU PIWIL2 (11732686_x_at) / Fold change /veh PIWIL2 (11732686_x_at) / RFU ORM1 (11744905_x_at) / Fold change /veh ORM1 (11744905_x_at) / RFU CCDC152 (11743942_at) / Fold change /veh CCDC152 (11743942_at) / RFU ECM1 (11717891_a_at) / Fold change /veh ECM1 (11717891_a_at) / RFU IL23R (11748794_a_at) / Fold change /veh IL23R (11748794_a_at) / RFU TNFAIP8L3 (11732012_x_at) / Fold change /veh TNFAIP8L3 (11732012_x_at) / RFU MBOAT4 (11741988_at) / Fold change /veh MBOAT4 (11741988_at) / RFU 11764193_at / Fold change /veh 11764193_at / RFU TMEM53 (11763286_at) / Fold change /veh TMEM53 (11763286_at) / RFU MAGEB2 (11727129_at) / Fold change /veh MAGEB2 (11727129_at) / RFU TMEM200A (11744735_a_at) / Fold change /veh TMEM200A (11744735_a_at) / RFU CCDC152 (11751479_a_at) / Fold change /veh CCDC152 (11751479_a_at) / RFU FAM211A (11726209_a_at) / Fold change /veh FAM211A (11726209_a_at) / RFU RGS16 (11746705_a_at) / Fold change /veh RGS16 (11746705_a_at) / RFU VCAN (11755009_s_at) / Fold change /veh VCAN (11755009_s_at) / RFU RHOB (11743442_s_at) / Fold change /veh RHOB (11743442_s_at) / RFU RGS16 (11720943_a_at) / Fold change /veh RGS16 (11720943_a_at) / RFU RGS16 (11720944_at) / Fold change /veh RGS16 (11720944_at) / RFU, VPS4B / Fold change vs veh, VPS4B / RFU, CREB1 / Fold change vs veh, CREB1 / RFU, DNAJC13 / Fold change vs veh, DNAJC13 / RFU, GNAQ / Fold change vs veh, GNAQ / RFU, CDK5R1 / Fold change vs veh, CDK5R1 / RFU, ZRANB3 / Fold change vs veh, ZRANB3 / RFU, CUL4A / Fold change vs veh, CUL4A / RFU, CCNY / Fold change vs veh, CCNY / RFU, UFL1 / Fold change vs veh, UFL1 / RFU, COG3 / Fold change vs veh, COG3 / RFU, DIAPH2 / Fold change vs veh, DIAPH2 / RFU, SKA2 / Fold change vs veh, SKA2 / RFU, AFF3 / Fold change vs veh, AFF3 / RFU, LMF1 / Fold change vs veh, LMF1 / RFU, IPO11 / Fold change vs veh, IPO11 / RFU, DFFB / Fold change vs veh, DFFB / RFU, FOXP1 / Fold change vs veh, FOXP1 / RFU, CARD8 / Fold change vs veh, CARD8 / RFU, STRN3 / Fold change vs veh, STRN3 / RFU, ADK / Fold change vs veh, ADK / RFU, RASSF2 / Fold change vs veh, RASSF2 / RFU, WIPF1 / Fold change vs veh, WIPF1 / RFU, LARP1B / Fold change vs veh, LARP1B / RFU, RASA1 / Fold change vs veh, RASA1 / RFU, RB1 / Fold change vs veh, RB1 / RFU, PPFIA1 / Fold change vs veh, PPFIA1 / RFU, MAT2A / Fold change vs veh, MAT2A / RFU, CCT5 / Fold change vs veh, CCT5 / RFU, WDR92 / Fold change vs veh, WDR92 / RFU, CUX1 / Fold change vs veh, CUX1 / RFU, TTC7A / Fold change vs veh, TTC7A / RFU, TMEM135 / Fold change vs veh, TMEM135 / RFU, DEPTOR / Fold change vs veh, DEPTOR / RFU, CPM / Fold change vs veh, CPM / RFU, DNAJB6 / Fold change vs veh, DNAJB6 / RFU, CACNA2D3 / Fold change vs veh, CACNA2D3 / RFU, DTX4 / Fold change vs veh, DTX4 / RFU, TFCP2 / Fold change vs veh, TFCP2 / RFU, GMCL1 /// GMCL1P1 / Fold change vs veh, GMCL1 /// GMCL1P1 / RFU, AEBP2 / Fold change vs veh, AEBP2 / RFU, SNHG1 /// SNORD22 /// SNORD25 /// SNORD26 /// SNORD27 /// SNORD28 /// SNORD29 /// SNORD31 / Fold change vs veh, SNHG1 /// SNORD22 /// SNORD25 /// SNORD26 /// SNORD27 /// SNORD28 /// SNORD29 /// SNORD31 / Fold change (Aza/veh), C12orf56 (ProbeSet 11735607_a_at) / Fold change (ACY-1035/veh), C12orf56 (ProbeSet 11735607_a_at) / Fold change (Aza/veh), FGFR1OP (ProbeSet 11751329_s_at) / Fold change (ACY-1035/veh), FGFR1OP (ProbeSet 11751329_s_at) / Fold change (Aza/veh), VPS36 (ProbeSet 11739960_a_at) / Fold change (ACY-1035/veh), VPS36 (ProbeSet 11739960_a_at) / RFU SYPL1 (11715823_x_at) / Fold change /veh SYPL1 (11715823_x_at) / RFU IGFBP7 (11715501_s_at) / Fold change /veh IGFBP7 (11715501_s_at) / RFU REEP3 (11722064_at) / Fold change /veh REEP3 (11722064_at) / RFU IGLL1 (11728026_x_at) / Fold change /veh IGLL1 (11728026_x_at): dose or concentration left out as unconfirmed
Conditions: MV-4-11 cells, 48 hours

Nc1ncn([C@@H]2O[C@H](CO)[C@@H](O)[C@H]2O)c(=O)n1 [azacitidine]
Fold change /veh TMEM51 (11727254_a_at): 1.21
